≈ marks a conversion by molar mass, not a printed value.
Assays:
[1] = system: M. abscessus; experiment: Antimycobacterial MIC / primary screening, MABA; format: cell-based; settings: Mycobacteroides abscessus, read-out: MIC M. abscessus
[2] = system: M. bovis BCG; experiment: microbe, parasite or virus in culture; format: cell-based; settings: Mycobacterium tuberculosis variant bovis BCG, read-out: MIC M. bovis BCG
[3] = system: M. tuberculosis H37Rv; experiment: Antimycobacterial MIC / primary screening, MABA (microplate alamar blue assay); format: cell-based; settings: Mycobacterium tuberculosis
[4] = system: L929 cells; experiment: Cytotoxicity, MTT protocol (ISO 10993-5:2009(E)); format: cell-based; settings: ratio to MIC against M. tuberculosis
Description: This evaluation adhered precisely to international standards (ISO 10993-5:2009(E)), employing L929 cells and the MTT protocol ([Bekier et al., 2021]). The determination of the half maximal inhibitory concentration (IC50) values was carried out for 12 out of the 13 compounds tested, considering the occurrence of derivative precipitation in the growth medium for L929 cells (Table 1). […] For two compounds (5g and 5i), the discriminatory index (IC50/MIC) was identified at the level of 20.

[5] = target: MTB InhA (Mycobacterium tuberculosis, UniProt P9WGR1); experiment: InhA inhibition endpoint assay; format: biochemical; settings: read-out: IC50 against InhA
Sequence of MTB InhA (P9WGR1 whole entry, looked up): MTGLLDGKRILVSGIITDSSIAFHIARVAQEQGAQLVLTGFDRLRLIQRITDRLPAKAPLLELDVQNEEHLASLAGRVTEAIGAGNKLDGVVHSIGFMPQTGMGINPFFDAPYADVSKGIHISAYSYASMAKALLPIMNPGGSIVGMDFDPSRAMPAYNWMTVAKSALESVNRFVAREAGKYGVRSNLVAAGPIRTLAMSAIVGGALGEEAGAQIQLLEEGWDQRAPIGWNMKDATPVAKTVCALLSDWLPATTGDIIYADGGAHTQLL

[6] = system: MTB; settings: cited from earlier work

Row | Structure (SMILES) | MIC [1] [µg/mL] | MIC [2] [µg/mL] | melting point [°C] | MIC [3] [µg/mL] | IC50-L929/MIC Mtb (cytotoxicity / discriminatory index) [4] | IC50 [5] [µM] | MIC against MTB ([6]; ref Quimque et al., 2023) | MIC, tuberculosis ([6]; ref Gill et al., 2008) [µg/mL]
1 | COc1ccc(-n2nnc(-c3cc(C(=O)O)c4ccccc4n3)c2C)cc1 [Compound 5b, 2-(1-(4-Methoxyphenyl)-5-methyl-1H-1,2,3-triazol-4-yl)benzo[b]pyridine-4-carboxylic acid] | > 125 | < 125 | 222 to 224 | 62.5 (≈ 173 µM) | – | – | – | –
2 | Cc1c(-c2cc(C(=O)O)c3ccccc3n2)nnn1-c1cccc(Cl)c1 [Compound 5c, 2-(1-(3-Chlorophenyl)-5-methyl-1H-1,2,3-triazol-4-yl)benzo [b]pyridine-4-carboxylic acid] | > 125 | < 125 | 276 to 277 | 62.5 (≈ 171 µM) | – | – | – | –
3 | Cc1c(-c2cc(C(=O)O)c3cc(Cl)ccc3n2)nnn1-c1ccc(Br)cc1 [Compound 5o, 2-(1-(4-Bromophenyl)-5-methyl-1H-1,2,3-triazol-4-yl)-6-chlorobenzo [b]pyridine-4-carboxylic acid] | > 125 | < 125 | > 300 | 15 (≈ 33.8 µM) | 10 | – | – | –
4 | NNC(=O)c1ccncc1 [INH, isoniazid, reference compound] | 0.1 (≈ 0.729 µM) | 0.05 (≈ 0.365 µM) | – | 0.1 (≈ 0.729 µM) | – | 0.24 ± 0.01 | – | –
5 | Cc1c(-c2cc(C(=O)O)c3ccccc3n2)nnn1-c1cccc(Br)c1 [Compound 5d, 2-(1-(3-Bromophenyl)-5-methyl-1H-1,2,3-triazol-4-yl)benzo [b]pyridine-4-carboxylic acid] | > 125 | < 125 | 248 to 250 | 62.5 (≈ 153 µM) | – | – | – | –
6 | CC(C)c1ccc2nc(-c3ccc4ccc5ccccc5c4c3)cc(C(=O)O)c2c1 [Compound II] | – | – | – | – | – | – | around 16 μM | –
7 | Cc1c(-c2cc(C(=O)O)c3cc(Br)ccc3n2)nnn1-c1ccc(F)cc1 [Compound 5u, 6-Bromo-2-(1-(4-fluorophenyl)-5-methyl-1H-1,2,3-triazol-4-yl)benzo [b]pyridine-4-carboxylic acid] | > 125 | < 125 | > 300 | 62.5 (≈ 146 µM) | – | – | – | –
8 | Cc1c(-c2cc(C(=O)O)c3ccccc3n2)nnn1-c1ccc([N+](=O)[O-])cc1 [Compound 5h, 2-(5-Methyl-1-(4-nitrophenyl)-1H-1,2,3-triazol-4-yl)benzo [b]pyridine-4-carboxylic acid] | > 125 | < 125 | 265 to 267 | 125 (≈ 333 µM) | – | – | – | –
9 | Cc1c(-c2cc(C(=O)O)c3cc(Cl)ccc3n2)nnn1-c1cccc(Br)c1 [Compound 5L, 2-(1-(3-Bromophenyl)-5-methyl-1H-1,2,3-triazol-4-yl)-6-chlorobenzo [b]pyridine-4-carboxylic acid] | > 125 | < 125 | 248 to 250 | 15 (≈ 33.8 µM) | 13 | – | – | –
10 | Fc1cccc(-c2nc3ccccc3n2Cc2cn(-c3ccc(F)cc3F)nn2)c1 [compound VII] | – | – | – | – | – | – | – | 6.25 (≈ 15.4 µM)
11 | Cc1c(-c2cc(C(=O)O)c3ccccc3n2)nnn1-c1ccc(Cl)cc1 [Compound 5f, 2-(1-(4-Chlorophenyl)-5-methyl-1H-1,2,3-triazol-4-yl)benzo [b]pyridine-4-carboxylic acid] | > 125 | < 125 | 246 to 248 | 62.5 (≈ 171 µM) | – | – | – | –
12 | Cc1c(-c2cc(C(=O)O)c3cc(Br)ccc3n2)nnn1-c1ccc(Br)cc1 [Compound 5w, 6-Bromo-2-(1-(4-bromophenyl)-5-methyl-1H-1,2,3-triazol-4-yl)benzo [b]pyridine-4-carboxylic acid] | > 125 | < 125 | > 300 | 15 (≈ 30.7 µM) | 10 | – | – | –
13 | Cc1c(-c2cc(C(=O)O)c3cc(Cl)ccc3n2)nnn1-c1ccc([N+](=O)[O-])cc1 [Compound 5p, 6-Chloro-2-(5-methyl-1-(4-nitrophenyl)-1H-1,2,3-triazol-4-yl)benzo [b]pyridine-4-carboxylic acid] | > 125 | < 125 | 235 to 237 | 62.5 (≈ 153 µM) | – | – | – | –
14 | Cc1c(-c2cc(C(=O)O)c3cc(Br)ccc3n2)nnn1-c1cccc(Br)c1 [Compound 5t, 6-Bromo-2-(1-(3-bromophenyl)-5-methyl-1H-1,2,3-triazol-4-yl)benzo [b]pyridine-4-carboxylic acid] | > 125 | < 125 | 299 to 300 | 15 (≈ 30.7 µM) | 13 | – | – | –
15 | Cc1c(-c2cc(C(=O)O)c3cc(Br)ccc3n2)nnn1-c1ccc(Cl)cc1 [Compound 5v, 6-Bromo-2-(1-(4-chlorophenyl)-5-methyl-1H-1,2,3-triazol-4-yl)benzo [b]pyridine-4-carboxylic acid] | > 125 | < 125 | > 300 | 15 (≈ 33.8 µM) | 13 | – | – | –
16 | Cc1c(-c2cc(C(=O)O)c3ccccc3n2)nnn1-c1ccc(Br)cc1 [Compound 5g, 2-(1-(4-Bromophenyl)-5-methyl-1H-1,2,3-triazol-4-yl)benzo [b]pyridine-4-carboxylic acid] | > 125 | < 125 | 228 to 229 | 15 (≈ 36.7 µM) | 20 | 4.13 ± 0.17 | – | –
17 | Cc1c(-c2cc(C(=O)O)c3cc(Br)ccc3n2)nnn1-c1cccc(Cl)c1 [Compound 5s, 6-Bromo-2-(1-(3-chlorophenyl)-5-methyl-1H-1,2,3-triazol-4-yl)benzo [b]pyridine-4-carboxylic acid] | > 125 | < 125 | > 300 | 15 (≈ 33.8 µM) | 13 | – | – | –
18 | Cc1c(-c2cc(C(=O)O)c3cc(Cl)ccc3n2)nnn1-c1ccc(Cl)cc1 [Compound 5n, 6-Chloro-2-(1-(4-chlorophenyl)-5-methyl-1H-1,2,3-triazol-4-yl)benzo [b]pyridine-4-carboxylic acid] | > 125 | < 125 | – | 12.5 (≈ 31.3 µM) | 16 | 0.72 ± 0.03 | – | –
19 | Cc1c(-c2cc(C(=O)O)c3ccccc3n2)nnn1-c1ccc(F)cc1 [Compound 5e, 2-(1-(4-Fluorophenyl)-5-methyl-1H-1,2,3-triazol-4-yl)benzo [b]pyridine-4-carboxylic acid] | > 125 | < 125 | 290 to 291 | 125 (≈ 359 µM) | – | – | – | –
20 | Cc1c(-c2cc(C(=O)O)c3ccccc3n2)nnn1-c1ccccc1 [Compound 5a, 2-(5-Methyl-1-phenyl-1H-1,2,3-triazol-4-yl)benzo [b]pyridine-4-carboxylic acid] | > 125 | < 125 | 278 to 280 | 125 (≈ 378 µM) | – | – | – | –
21 | Cc1c(-c2cc(C(=O)O)c3cc(Br)ccc3n2)nnn1-c1ccc([N+](=O)[O-])cc1 [Compound 5x, 6-Bromo-2-(5-methyl-1-(4-nitrophenyl)-1H-1,2,3-triazol-4-yl)benzo [b]pyridine-4-carboxylic acid] | > 125 | < 125 | 236 to 238 | 125 (≈ 275 µM) | – | – | – | –
22 | Cc1c(-c2cc(C(=O)O)c3cc(Cl)ccc3n2)nnn1-c1cccc(Cl)c1 [Compound 5k, 6-Chloro-2-(1-(3-chlorophenyl)-5-methyl-1H-1,2,3-triazol-4-yl)benzo [b]pyridine-4-carboxylic acid] | > 125 | < 125 | > 300 | 15 (≈ 37.6 µM) | 13 | – | – | –
23 | COc1ccc(-n2nnc(-c3cc(C(=O)O)c4cc(Br)ccc4n3)c2C)cc1 [Compound 5r, 6-Bromo-2-(1-(4-methoxyphenyl)-5-methyl-1H-1,2,3-triazol-4-yl)benzo [b]pyridine-4-carboxylic acid] | > 125 | < 125 | 294 to 295 | 15 (≈ 34.1 µM) | 5 | – | – | –
24 | COc1ccc(-n2nnc(-c3cc(C(=O)O)c4cc(Cl)ccc4n3)c2C)cc1 [Compound 5j, 6-Chloro-2-(1-(4-methoxyphenyl)-5-methyl-1H-1,2,3-triazol-4-yl)benzo [b]pyridine-4-carboxylic acid] | > 125 | < 125 | 287 to 289 | 15 (≈ 38 µM) | 10 | – | – | –
25 | Cc1c(-c2cc(C(=O)O)c3cc(Cl)ccc3n2)nnn1-c1ccccc1 [Compound 5i, 6-Chloro-2-(5-methyl-1-phenyl-1H-1,2,3-triazol-4-yl)benzo [b]pyridine-4-carboxylic acid] | > 125 | < 125 | > 300 | 15 (≈ 41.1 µM) | 20 | 11.8 ± 0.49 | – | –
26 | Cc1c(-c2cc(C(=O)O)c3cc(Br)ccc3n2)nnn1-c1ccccc1 [Compound 5q, 6-Bromo-2-(5-methyl-1-phenyl-1H-1,2,3-triazol-4-yl)benzo [b]pyridine-4-carboxylic acid] | > 125 | < 125 | > 300 | 15 (≈ 36.7 µM) | – | – | – | –
27 | Cc1c(-c2cc(C(=O)O)c3cc(Cl)ccc3n2)nnn1-c1ccc(F)cc1 [Compound 5m, 6-Chloro-2-(1-(4-fluorophenyl)-5-methyl-1H-1,2,3-triazol-4-yl)benzo [b]pyridine-4-carboxylic acid] | > 125 | < 125 | 298 to 299 | 62.5 (≈ 163 µM) | – | – | – | –
